Results as given in the supplement of paper PMC11562712.

Assay: first-order primary biodegradation rate constant k (sorption-corrected, fDis-corrected) (d-1); higher = faster biodegradation
How it was run: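 River water and sieved sediment (50 g wet solid L^–1) from segments in Germany, Switzerland, Spain and Greece were spiked with 129 compounds at 1 μg L^–1 each and shaken in the dark at river water temperature (20.5 ± 3.5 °C) for 10 days, in three replicates. After filtration, water-phase subsamples were analysed by Orbitrap tandem mass spectrometry following ultra-high-performance liquid chromatography. First-order k was taken from log peak-area regression, corrected using azide-sterilised sorption controls and divided by the dissolved fraction, excluding invalid fits.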

[1] = river segment: Germany (DE) H_Contam, incubation temperature 24 °C
[2] = river segment: Germany (DE) T_Contam, incubation temperature 24 °C
[3] = river segment: Germany (DE) T_Pris, incubation temperature 24 °C
[4] = river segment: Greece (EL) A_Contam, incubation temperature 19 °C
[5] = river segment: Greece (EL) G_Pris, incubation temperature 19 °C
[6] = river segment: Greece (EL) L_Contam, incubation temperature 19 °C
[7] = river segment: Spain (ES) B_Contam, incubation temperature 24 °C
[8] = river segment: Spain (ES) C_Contam, incubation temperature 24 °C
[9] = river segment: Switzerland (CH) C_Contam, incubation temperature 17 °C
[10] = river segment: Switzerland (CH) R_Contam, incubation temperature 17 °C
[11] = river segment: Switzerland (CH) U_Contam, incubation temperature 17 °C
[12] = river segment: Switzerland (CH) U_Pris, incubation temperature 17 °C
[13] = river segment: Spain (ES) L_Contam, incubation temperature 24 °C
[14] = river segment: Greece (EL) G_Contam, incubation temperature 19 °C
[15] = river segment: Spain (ES) F_Pris_Salt, incubation temperature 24 °C

Row | Compound | first-order primary biodegradation rate constant k [1] | first-order primary biodegradation rate constant k [2] | first-order primary biodegradation rate constant k [3] | first-order primary biodegradation rate constant k [4] | first-order primary biodegradation rate constant k [5] | first-order primary biodegradation rate constant k [6] | first-order primary biodegradation rate constant k [7] | first-order primary biodegradation rate constant k [8] | first-order primary biodegradation rate constant k [9] | first-order primary biodegradation rate constant k [10] | first-order primary biodegradation rate constant k [11] | first-order primary biodegradation rate constant k [12] | first-order primary biodegradation rate constant k [13] | first-order primary biodegradation rate constant k [14] | first-order primary biodegradation rate constant k [15]
1 | CN(C)CCN1C(=O)c2ccccc2N(C)c2ccccc21 [Dibenzepin] | 0.0259 | 0.567 | 0.127 | 0.19 | 0.127 | 0.215 | 0.0245 | 0.0361 | 0.0239 | 0.0245 | 0.0346 | 0.0723 |  |  | 
2 | CC(C)(Oc1ccc(Cl)cc1)C(=O)O [Clofibric acid] | 0.0901 | 0.0769 | 0.0208 | 0.0823 | 0.0358 | 0.0249 | 0.0306 | 0.0243 | 0.0409 | 0.0581 | 0.034 | 0.0607 | 0.11 |  | 
3 | CC(C)NCC(O)COc1cccc2ccccc12 (stereo not given) [Propranolol] | 0.231 |  | 0.118 |  | 0.0227 |  | 0.309 | 0.539 | 0.0688 | 0.251 | 0.246 | 0.29 | 0.303 | 0.0886 | 0.0162
4 | CN(Cc1cnc2nc(N)nc(N)c2n1)c1ccc(C(=O)N[C@@H](CCC(=O)O)C(=O)O)cc1 [Methotrexate] | 3.99 |  | 8.59 |  |  | 6.29 |  |  |  | 18 |  |  |  |  | 6.23
5 | CC(=O)NC[C@H]1CN(c2ccc(N3CCOCC3)c(F)c2)C(=O)O1 [Linezolid] | 0.0119 | 0.0934 | 0.0124 | 0.285 | 0.308 | 0.262 | 0.0257 | 0.0212 | 0.0127 | 0.0142 | 0.0268 | 0.103 | 0.0693 | 0.00542 | 
6 | CC(C)N(C(=O)COc1nnc(C(F)(F)F)s1)c1ccc(F)cc1 [Flufenacet] | 0.0427 | 0.151 |  | 0.0323 | 0.0751 |  | 0.0399 | 0.0442 |  |  | 0.0707 | 0.105 | 0.0865 |  | 
7 | CCCOC(=O)c1ccc(O)cc1 [Propylparaben] | 2.67 |  | 1.42 |  |  |  |  | 2.24 |  |  |  |  | 4.24 |  | 0.275
8 | OC(Cn1cncn1)(Cn1cncn1)c1ccc(F)cc1F [Fluconazole] | 0.024 | 0.00573 |  |  |  | 0.0588 |  |  |  |  | 0.00361 |  |  | 0.311 | 
9 | C/C(=N\C#N)N(C)Cc1ccc(Cl)nc1 [Acetamiprid] | 0.0195 | 0.217 | 0.0162 | 0.097 | 0.125 | 0.0691 |  | 0.00952 | 0.031 | 0.139 | 0.106 | 0.386 | 0.0364 | 0.0201 | 
10 | Cc1ccc2n[nH]nc2c1 [5-Methylbenzotriazole] | 0.0462 | 0.0831 | 0.00627 | 0.327 | 0.771 | 0.219 | 0.0714 | 0.102 | 0.0095 | 0.134 | 0.139 | 0.282 | 0.219 |  | 
11 | CCCCCCCCCCN [Decylamine] | 11.8 | 54.6 | 5.65 | 68.6 | 29.1 |  |  | 43.8 | 0.758 | 11.7 |  |  |  | 17.4 | 12.1
12 | Cc1cccc(Nc2ccccc2C(=O)O)c1C [Mefenamic acid] | 0.0696 | 0.497 | 0.23 | 0.235 |  |  |  | 0.0725 | 0.174 |  | 1.41 | 1.7 |  |  | 0.804
